We go through twelve molecules from patent US9440982B2 (Eolas Therapeutics, Inc., priority 2012, dated 2016).

pIC50: −log10 of the molar value. Some results are limits rather than exact numbers.

The first assay concerns the target T1, OX1 (Homo sapiens, UniProt O43613).
T1 construct: expressed in transfected cells; host or cells: CHO (CHO-OX1, kept under selection antibiotic)
T1 sequence (O43613 1-425): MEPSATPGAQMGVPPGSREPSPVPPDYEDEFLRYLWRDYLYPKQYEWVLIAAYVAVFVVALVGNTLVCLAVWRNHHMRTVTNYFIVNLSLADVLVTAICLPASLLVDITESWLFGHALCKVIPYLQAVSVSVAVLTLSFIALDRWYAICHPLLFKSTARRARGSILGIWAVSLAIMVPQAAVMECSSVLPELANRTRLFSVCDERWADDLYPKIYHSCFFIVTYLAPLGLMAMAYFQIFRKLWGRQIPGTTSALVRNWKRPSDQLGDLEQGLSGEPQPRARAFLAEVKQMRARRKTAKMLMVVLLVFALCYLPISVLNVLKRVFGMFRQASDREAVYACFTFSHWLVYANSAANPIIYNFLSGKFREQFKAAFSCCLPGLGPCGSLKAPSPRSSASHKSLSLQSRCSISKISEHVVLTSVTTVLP
Briefly: Orexin receptor cell-based functional assay, [Ca2+]i by FLIPR, CHO-OX1 cells. The settings on record: CHO-OX1 cells, [Ca2+]i by FLIPR, antagonist dose-range 0.1 nM-10 μM, EC90 of OXA; read-out: OX1. A digest of the protocol:
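Antagonist mode FLIPR calcium read in CHO-OX1 and CHO-OX2 lines. Test compounds, dosed 0.1 nM-10 μM, preincubated 30 min after 37° C dye loading with 2.5 mM probenecid (calcium4 for 30 min or calcium6 for 2 h).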
For `C[C@@H]1CCCN(C(=O)c2c(-n3nccn3)ccc(F)c2F)[C@@H]1CNc1ncc(C(F)(F)F)cn1` [Example A337, (2,3-Difluoro-6-(2H-1,2,3-triazol-2-yl)phenyl)((2S,3R)-3-methyl-2-(((5-(trifluoromethyl)pyrimidin-2-yl)amino)methyl)piperidin-1-yl)methanone], the pIC50 is 8.05. With `Cc1ccc(C(=O)N2CCC[C@@H](C)[C@H]2CNc2ccc(C(F)(F)F)cn2)c(-n2nccn2)c1` [Example A273, ((2S,3R)-3-Methyl-2-(((5-(trifluoromethyl)pyridin-2-yl)amino)methyl)piperidin-1-yl)(4-methyl-2-(2H-1,2,3-triazol-2-yl)phenyl)methanone], the pIC50 is 8.22. Turning to `Cc1nc(C(=O)N2CCCC3CN(c4ccc(C(F)(F)F)cn4)CC32)c(-c2ccc(F)cc2)s1` (stereo not drawn) [Example A77, (5-(4-Fluorophenyl)-2-methylthiazol-4-yl)(6-(5-(trifluoromethyl)pyridin-2-yl)octahydro-1H-pyrrolo[3,4-b]pyridin-1-yl)methanone], the pIC50 is < 6.00.

Staying with this assay, now noted: Table 2; CHO-OX1 cells, EC90 of OXA; read-out: IC50 Bioactivity OX1.
As to `C[C@@H]1CCCN(C(=O)c2ccnn2-c2ccccc2)[C@@H]1CNc1ccc(C(F)(F)F)cn1` (racemic) [Example 119, rac-cis-(3-Methyl-2-(((5-(trifluoromethyl)pyridin-2-yl)amino)methyl)piperidin-1-yl)(1-phenyl-1H-pyrazol-5-yl)methanone], the pIC50 was 6.40. Same read-out and setting: as for `O=C(NCC1CCC(NCc2ccccc2)CN1C(=O)c1ccccc1-c1ccccc1)c1cccc2cccnc12` (racemic) [Example 40, N-((5-(Benzylamino)-1-(biphenylcarbonyl)piperidin-2-yl)methyl)quinoline-8-carboxamide], the figure is 6.22.

Take `CO[C@@H]1CCCN(C(=O)c2nc(C)sc2-c2ccc(F)cc2)[C@@H]1CNc1ncc(Cl)cn1` (racemic) [Example 93, rac-cis-(2-(((5-Chloropyrimidin-2-yl)amino)methyl)-3-methoxypiperidin-1-yl)(5-(4-fluorophenyl)-2-methylthiazol-4-yl)methanone]: the pIC50 was 7.00.

In the case of `Cc1nc(-c2ccccc2)c(C(=O)N2CC(O)CCC2CNC(=O)c2cccc3cccnc23)s1` (racemic) [Example 33, N-((5-Hydroxy-1-(2-methyl-4-phenylthiazole-5-carbonyl)piperidin-2-yl)methyl)quinoline-8-carboxamide], the pIC50 was 7.70. On the same count and under the same terms, to `Cc1nc(C(=O)N2CCC[C@@H](C)[C@H]2CNc2cncc(Cl)n2)c(-c2ccc(F)cc2)s1` (racemic) [Example 123, rac-cis-(2-(((6-Chloropyrazin-2-yl)amino)methyl)-3-methylpiperidin-1-yl)(5-(4-fluorophenyl)-2-methylthiazol-4-yl)methanone] belongs 5.44; to `Cc1ccc(-c2ncccn2)c(C(=O)N2CCC[C@@H](C)[C@H]2CNc2ccc(C(F)(F)F)cn2)c1` (racemic) [Example 112, rac-cis-(3-Methyl-2-(((5-(trifluoromethyl)pyridin-2-yl)amino)methyl)piperidin-1-yl)(5-methyl-2-(pyrimidin-2-yl)phenyl)methanone], 7.77. On the same count and under the same terms, as for `Cc1nc(C(=O)N2CC3CCCCC3C2CNC(=O)c2cccc3occc23)c(-c2ccccc2)s1` (single isomer, unassigned) [Example 71], the figure is 7.40; as for `CN(C)C1CCC(CNC(=O)c2cccc3cccnc23)N(C(=O)c2ccccc2-c2ccccc2)C1` (racemic) [Example 41, N-((1-(Biphenylcarbonyl)-5-(dimethylamino)piperidin-2-yl)methyl)quinoline-8-carboxamide], 5.82; as for `Cc1ccc(-c2ccc(N3CCN(C)CC3)nc2)c(C(=O)N2CCC[C@@H](C)[C@H]2CNc2ccc(C(F)(F)F)cn2)c1` (racemic) [Example 110, rac-cis-(3-Methyl-2-(((5-(trifluoromethyl)pyridin-2-yl)amino)methyl)piperidin-1-yl)(5-methyl-2-(6-(4-methylpiperazin-1-yl)pyridin-3-yl)phenyl)methanone], < 6.00.
